The test relates to bacterial strain LF82 binding to the glycoprotein BSA-(Mannose)3 (FimH antagonists). The experiment in a line: Bacterial Binding Assay (BBA). Conditions: read-out: Bacterial Binding Assay IC50 ± SEM. In kind it is cell-based, Escherichia coli. An excerpt: The purpose of the Bacterial Binding Assay (BBA) is to determine the inhibition activity of selective FimH antagonists on the bacterial strain LF82 binding to the glycoprotein BSA-(Mannose)3.
Below is a list of the Materials used to run the BBA are described below. • 1. LB broth: Supplier: Gibco, #10855 • 2. D-PBS: Supplier: Wisent, #311-425-CL • 3. LB agar plates • 4. 96-well black plate (high binding): Supplier: Costar, #3925 • 5. TopSeal™-A adhesive sealing films; Supplier PerkinElmer, #6005185 • 6. Carbonate-bicarbonate buffer pH 9.6 tablets, Supplier: Medicago, #09-8922-24 • 7. Water, Supplier: Gibco, #15230-162 • 8. Bovine serum albumin (BSA): Supplier: Sigma, #A-7888 • 9. (Man)3-BSA (α1-3, α1-6 Mannotriose-BSA, 1 mg), V-Labs, #NGP1336, lot# HGDX37-169-1 • 10. Tween 20: Supplier: Sigma, #P9416 • 11. Bright-Glo Luciferase Assay System: Supplier: Promega, #E2610 • 12. LF82/Luciferase strain: Invasive ability of an Escherichia coli strain isolated from the ileal mucosa of a patient with Crohn's disease. Boudeau J, Glasser A L, Masseret E, Joly B, Darfeuille-Michaud A, Infect Immun. 1999, 67(9), 4499-509
Solutions and buffers used to run the BBA are described below. • 1. 0.04M carbonate-bicarbonate buffer (coating buffer) • 2. 40 μg/mL BSA-(Man)3: Dissolve 1 mg of (Man)3-BSA in 25 mL of water. • 3. 4000 μg/mL BSA • 4. 40 μg/mL BSA • 5. 1 μg/mL BSA-(Man)3: 150 μL of 40 μg/mL BSA-(Man)3+5.85 mL of 40 μg/mL BSA • 6. 0.5 μg/mL BSA-(Man)3 in 0.02M carbonate-bicarbonate buffer. • 7. 20 μg/mL BSA in 0.02M carbonate-bicarbonate buffer • 8. Blocking buffer (2% BSA/DPBS): 1 g of BSA in 50 mL D-PBS • 9. 2× binding buffer (0.2% BSA/D-PBS): 5 mL of blocking buffer+45 mL D-PBS. • 10. Washing buffer (D-PBS/0.01% Tween 20): 10 μL of Tween 20 in 100 mL D-PBS. • 11. 1× Bright-Glo Luciferase substrate: Dilute 1:1 the Bright-Glo Luciferase Assay System with D-PBS
The experimental protocol used in this example to run the BBA is described below.
Overnight culture of LF82/Luciferase strain: Into two Falcon 50 mL tubes, add 20 mL of LB+20 μL of 50 mg/mL Kanamycin and inoculate with a loop from glycerol stock of the LF82/Luciferase strain. Incubate overnight at 37° C. with no shaking.
Glycoprotein coating of 96-well plates: Add 100 μL/well of 0.5-2 μg/mL BSA-(Man)3. 20 μg/mL BSA is used as the control background. Seal plate using an adhesive sealing film and incubate overnight at room temperature. Wash the 96-well plate three times with 150 μL/well of D-PBS, add 170 μL/well of blocking solution and incubate 45 min (minimum) at room temperature.
Preparation of bacterial suspension: Mix the two cultures tubes (40 mL) and perform a 1:10 dilution in LB (900 μl LB+100 μl culture. Measure optical density (OD) of the bacterial cultures. OD1 ˜5×10^8 cells/mL. Centrifuge LF82 culture for 20 min at 3500 rpm at room temperature. Re-suspend bacterial pellet in D-PBS and centrifuge again for 20 min at 3500 rpm. Re-suspend bacterial pellet in D-PBS to obtain a bacterial concentration of 2×10^9 bacteria/mL. Dilute 1/10 in D-PBS to obtain a final bacterial concentration of 2×10^8 bacteria/mL (=107 bacteria/50 μL). Perform 1/10 serial dilutions in LB of each bacterial suspension, plate 10 μL of dilutions on LB agar plates (final dilutions of 10^−7) and incubate overnight at 37° C. and count CFUs to determine the actual bacteria density in the assay.
Bacterial binding assay: Add 147 μL 2× binding buffer to compound plate (containing 3 μL of compound). After blocking step is performed (at least 45 min), wash plates three times with 200 μL/well of D-PBS. With a 100 μL multichannel manual pipettor, add 50 μL/well of compound diluted in 2× binding buffer. With a 100 μL multichannel manual pipettor, add 50 μL/well of bacterial suspension. Agitate at slow speed for 1 min and incubate 40-75 min at room temperature. Wash 5 times with 150 μL/well of washing buffer and then once with D-PBS. Add 100 μL/well of 1× Bright-Glo Luciferase substrate. […]

Consider `CCCCc1cc(C#C[C@H]2O[C@H](CO)[C@@H](O)[C@H](O)[C@@H]2O)c2nn(C)cc2c1` [Compound 23, (2R,3S,4R,5S,6R)-2-[2-(5-butyl-2-methyl-indazol-7-yl)ethynyl]-6-(hydroxymethyl)tetrahydropyran-3,4,5-triol], for which the IC50 is 9 nM.

As for `CCCCc1cc(C#C[C@H]2O[C@H](CO)[C@@H](O)[C@H](O)[C@@H]2O)c2[nH]ncc2c1` [Compound 24, (2R,3S,4R,5S,6R)-2-[2-(5-butyl-1H-indazol-7-yl)ethynyl]-6-(hydroxymethyl)tetrahydropyran-3,4,5-triol], the IC50 came out at 1 ± 0.2 nM.

As for `OC[C@H]1O[C@H](C#Cc2cc(-c3ccccc3)cc3cn[nH]c23)[C@@H](O)[C@@H](O)[C@@H]1O` [Compound 25, (2R,3S,4R,5S,6R)-2-(hydroxymethyl)-6-[2-(5-phenyl-1H-indazol-7-yl)ethynyl]tetrahydropyran-3,4,5-triol], the IC50 was determined as 0.4 ± 0.04 nM.

With `Cc1ccccc1-c1cc(C#C[C@H]2O[C@H](CO)[C@@H](O)[C@H](O)[C@@H]2O)c2[nH]ncc2c1` [Compound 26], the IC50 was 0.7 ± 0.3 nM.

Turning to `OC[C@H]1O[C@H](C#Cc2cc(-c3cccnc3)cc3cn[nH]c23)[C@@H](O)[C@@H](O)[C@@H]1O` [Compound 27, (2R,3S,4R,5S,6R)-2-(hydroxymethyl)-6-[2-[5-(3-pyridyl)-1H-indazol-7-yl]ethynyl]tetrahydropyran-3,4,5-triol], the IC50 was 0.2 ± 0.03 nM.

With `O=[N+]([O-])c1ccc(-c2cc(C#C[C@H]3O[C@H](CO)[C@@H](O)[C@H](O)[C@@H]3O)c3[nH]ncc3c2)cc1` [Compound 28, (2R,3S,4R,5S,6R)-2-(hydroxymethyl)-6-[2-[5-(4-nitrophenyl)-1H-indazol-7-yl]ethynyl]tetrahydropyran-3,4,5-triol], the IC50 was found to be 0.6 ± 0.4 nM.

`CN(C)c1ccc(-c2cc(C#C[C@H]3O[C@H](CO)[C@@H](O)[C@H](O)[C@@H]3O)c3[nH]ncc3c2)cc1` [Compound 29, (2R,3S,4R,5S,6R)-2-[2-[5-[4-(dimethylamino)phenyl]-1H-indazol-7-yl]ethynyl]-6-(hydroxymethyl)tetrahydropyran-3,4,5-triol]: the IC50 was 1 ± 0.7 nM.

Consider `COc1ccc(-c2cc(C#C[C@H]3O[C@H](CO)[C@@H](O)[C@H](O)[C@@H]3O)c3[nH]ncc3c2)cc1` [Compound 30, (2R,3S,4R,5S,6R)-2-(hydroxymethyl)-6-[2-[5-(4-methoxyphenyl)-1H-indazol-7-yl]ethynyl]tetrahydropyran-3,4,5-triol], for which the IC50 is 0.5 ± 0.2 nM.

For the compound `NC(=O)c1cccc(-c2cc(C#C[C@H]3O[C@H](CO)[C@@H](O)[C@H](O)[C@@H]3O)c3[nH]ncc3c2)c1` [Compound 31, 3-[7-[2-[(2R,3S,4R,5S,6R)-3,4,5-trihydroxy-6-(hydroxymethyl)tetrahydropyran-2-yl]ethynyl]-1H-indazol-5-yl]benzamide], the IC50 came to 0.7 ± 0.01 nM.

`OC[C@H]1O[C@H](C#Cc2cc(-c3ccc4nccn4c3)cc3cn[nH]c23)[C@@H](O)[C@@H](O)[C@@H]1O` [Compound 32, (2R,3S,4R,5S,6R)-2-(hydroxymethyl)-6-[2-(5-imidazo[1,2-a]pyridin-6-yl-1H-indazol-7-yl)ethynyl]tetrahydropyran-3,4,5-triol]: the IC50 is 0.6 ± 0.005 nM.

As to `Cn1cnc2ccc(-c3cc(C#C[C@H]4O[C@H](CO)[C@@H](O)[C@H](O)[C@@H]4O)c4[nH]ncc4c3)cc21` [Compound 33, (2R,3S,4R,5S,6R)-2-(hydroxymethyl)-6-[2-[5-(3-methylbenzimidazol-5-yl)-1H-indazol-7-yl]ethynyl]tetrahydropyran-3,4,5-triol], the IC50 is 0.4 ± 0.05 nM.

Regarding `Cc1cnccc1-c1cc(C#C[C@H]2O[C@H](CO)[C@@H](O)[C@H](O)[C@@H]2O)c2[nH]ncc2c1` [Compound 34, (2R,3S,4R,5S,6R)-2-(hydroxymethyl)-6-[2-[5-(3-methyl-4-pyridyl)-1H-indazol-7-yl]ethynyl]tetrahydropyran-3,4,5-triol], the half-inhibitory concentration (IC50) was found to be 0.4 ± 0.09 nM.

In the case of `CS(=O)(=O)c1ccc(-c2cc(C#C[C@H]3O[C@H](CO)[C@@H](O)[C@H](O)[C@@H]3O)c3[nH]ncc3c2)cc1` [Compound 35, (2R,3S,4R,5S,6R)-2-(hydroxymethyl)-6-[2-[5-(4-methylsulfonylphenyl)-1H-indazol-7-yl]ethynyl]tetrahydropyran-3,4,5-triol], the IC50 was found to be 0.5 ± 0.1 nM.

Regarding `CC(=O)Nc1cccc(-c2cc(C#C[C@H]3O[C@H](CO)[C@@H](O)[C@H](O)[C@@H]3O)c3[nH]ncc3c2)c1` [Compound 36, N-[3-[7-[2-[(2R,3S,4R,5S,6R)-3,4,5-trihydroxy-6-(hydroxymethyl)tetrahydropyran-2-yl]ethynyl]-1H-indazol-5-yl]phenyl]acetamide], the IC50 is 2 ± 0.2 nM.

On to `OC[C@H]1O[C@H](C#Cc2cc(-c3ccc4c(c3)OCO4)cc3cn[nH]c23)[C@@H](O)[C@@H](O)[C@@H]1O` [Compound 37, (2R,3S,4R,5S,6R)-2-[2-[5-(1,3-benzodioxol-5-yl)-1H-indazol-7-yl]ethynyl]-6-(hydroxymethyl)tetrahydropyran-3,4,5-triol], for which the IC50 came out at 0.7 ± 0.02 nM.

As for `COc1cccc(-c2cc(C#C[C@H]3O[C@H](CO)[C@@H](O)[C@H](O)[C@@H]3O)c3[nH]ncc3c2)c1` [Compound 38, (2R,3S,4R,5S,6R)-2-(hydroxymethyl)-6-[2-[5-(3-methoxyphenyl)-1H-indazol-7-yl]ethynyl]tetrahydropyran-3,4,5-triol], the IC50 is 0.8 ± 0.5 nM.

Take `Cc1nnc(-c2ccc(-c3cc(C#C[C@H]4O[C@H](CO)[C@@H](O)[C@H](O)[C@@H]4O)c4[nH]ncc4c3)cc2)o1` [Compound 39, (2R,3S,4R,5S,6R)-2-(hydroxymethyl)-6-[2-[5-[4-(5-methyl-1,3,4-oxadiazol-2-yl)phenyl]-1H-indazol-7-yl]ethynyl]tetrahydropyran-3,4,5-triol]: the IC50 is 0.2 ± 0.05 nM.

Turning to `OC[C@H]1O[C@H](C#Cc2cc(-c3ccc4cc[nH]c4c3)cc3cn[nH]c23)[C@@H](O)[C@@H](O)[C@@H]1O` [Compound 40, (2R,3S,4R,5S,6R)-2-(hydroxymethyl)-6-[2-[5-(1H-indol-6-yl)-1H-indazol-7-yl]ethynyl]tetrahydropyran-3,4,5-triol], the IC50 is 1 ± 0.3 nM.

With `NS(=O)(=O)c1cccc(-c2cc(C#C[C@H]3O[C@H](CO)[C@@H](O)[C@H](O)[C@@H]3O)c3[nH]ncc3c2)c1` [Compound 41, 3-[7-[2-[(2R,3S,4R,5S,6R)-3,4,5-trihydroxy-6-(hydroxymethyl)tetrahydropyran-2-yl]ethynyl]-1H-indazol-5-yl]benzenesulfonamide], the IC50 stood at 0.4 ± 0.04 nM.

As to `CNC(=O)c1cncc(-c2cc(C#C[C@H]3O[C@H](CO)[C@@H](O)[C@H](O)[C@@H]3O)c3[nH]ncc3c2)c1` [Compound 42, N-methyl-5-[7-[2-[(2R,3S,4R,5S,6R)-3,4,5-trihydroxy-6-(hydroxymethyl)tetrahydropyran-2-yl]ethynyl]-1H-indazol-5-yl]pyridine-3-carboxamide], the IC50 worked out at 0.6 ± 0.2 nM.

The values above are taken from patent US10407414B2, “Mannose derivatives for treating bacterial infections” (priority 2015, dated 2019).
